In US11932898B2, “Precision therapeutic biomarker screening for cancer” (UNIVERSITY OF MIAMI, priority 2016, dated 2024):
Each block holds one molecule with its values, some of them ahead of it.

What was measured:
human tumor cell lines = assay: component-wise IC50 values of the SANGER drug sensitivity dataset, clustered by generalized FMMR cell line components; assay type: cell-based; settings: for magnitude of IC50s for overlapping component 12: component-wise IC50 boxplots, FIG. 11A-11E, cell line components 1, 2 and 12
Excerpt: Cancer cell lines have frequently been used as a convenient way of conducting such studies. For a systematic search of therapeutic biomarkers to a variety of cancer drugs, Garnett et al. (2012) screened 639 human tumor cell lines which represent much of the tissue-type and genetic diversity of human cancers with 130 drugs. These drugs, including approved drugs, drugs in development as well as experimental tool compounds, cover a wide range of targets and processes involved in cancer biology. In the Garnett et al. work, a range of 275-507 cell lines were screened for each drug. The effect of a 72 h drug treatment on cell viability was used to derive measures of drug sensitivity, including the half-maximal inhibitory concentration (IC50). In addition, the cell lines underwent sequencing of 64 known cancer genes, genome-wide analysis of copy number gains and losses, and expression profiling of 14,500 genes.
We applied the innovative techniques herein to analyzing the SANGER high throughput drug sensitivity dataset for cancer. […] The responses, made up with IC50 values from pairwise drug-cell-line screening, has some missing values. Therefore the data was first filtered by removing cell lines for which less than 50% of the drugs were tested, resulting in 591 cell lines remaining. In the remaining data, about 37.4% of the cell lines are with missing values. These missing values are imputed via the random forest imputation algorithm (Ishwaran, Kogalur, Blackstone and Lauer 2008; Stekhoven and Buhlmann 2012).
In order to identify patterns of cancer-specific therapeutic biomarkers, we employed method gEMseplasso in the analysis. […]
In the second step, the process uses an affinity-propagation clustering (APC) algorithm (Frey and Dueck 2007) to group the 140 drugs based on results from the first step. […] The pair-wise similarity matrix required by the algorithm as input data is calculated from the Euclidean distance between Za and Zb. […] The pair-wise similarity matrix is calculated from the Euclidean distance between Bk^a and Bk^b for k=1, . . . , 3. […]

soft tissue cancer = soft tissue cancer resistant to standard chemotherapy (doxyrubicin); small sample size phase II study; cited from earlier work
[1] = system: chronic myeloid leukemia (CML); settings: cited from earlier work

component with highest IC50s (human tumor cell lines; among cell line components 1, 2, and 12): component 2 | magnitude of IC50s for overlapping component 12 (human tumor cell lines): between those for component 1 and 2
Structure (SMILES): COc1cc2ncn(-c3cc(OCc4ccccc4C(F)(F)F)c(C(N)=O)s3)c2cc1OC [GW843682X]

Structure (SMILES): Nc1ccn([C@@H]2O[C@H](CO)[C@@H](O)C2(F)F)c(=O)n1 [Gemcitabine]
effectiveness in soft tissue cancer (soft tissue cancer): effective

Structure (SMILES): Nc1ccccc1NC(=O)c1ccc(CNC(=O)OCc2cccnc2)cc1 [MS.275]
magnitude of IC50s for overlapping component 12 (human tumor cell lines): between those for component 1 and 2

Structure (SMILES): Cc1ccc(NC(=O)c2ccc(CN3CCN(C)CC3)cc2)cc1Nc1nccc(-c2cccnc2)n1 [imatinib]
blood counts ([1]; CML patients who had exhausted standard treatment options, tested in 1998): returning to normal | five-year survival rate ([1]; CML patients): 95%
